Experimental data reported in US11291235B2, “Phloretin” (Firmenich SA, priority 2016, dated 2022).

What was measured:
Format in all cases: in vivo
[1] = Tasting of phloretin in water or model beverage solution of water and citric acid; conditions: tasted in water or in water and citric acid
[2] = Sensory evaluation of strawberry yogurt sweetened with 250 ppm Stevia (SG95), with and without phloretin
[3] = Sensory evaluation of pomegranate juice (POM Brand) sweetened with 150 ppm SG95, with and without phloretin
[4] = Sensory assessment of pasteurized sweet water solution of pea protein isolate, with and without phloretin; conditions: 30 ppm phloretin, eight panelists, 0 to 5 scale, Duncan test
Procedure: To evaluate sensory effect of phloretin on pea protein solution Evaluation in blind and randomized conditions of pasteurized sweet water solution of pea protein isolate • 1. Control: no phloretin added • 2. Test: 30 ppm phloretin added (via a presolution 10% in propylene glycol) Weigh and premix protein with sugar (600 gram preparation) Dispersion/solubilisation of protein-sugar-water to obtain a “mother mixture”: disperse mix protein/sugar in water (becher—deionized water 40° C.—Mini Ultra-Turrax T18—Speed 2—time:7 minutes). The same “mother mixture” for both the Control and Test trials. Add phloretin (fresh dilution 10% in propylene Glycol) in Test trial. Split each trials in 2 glass bottles: 100 g for pre-evaluation and generation of sensory attributes—200 gram for sensory assessment Pasteurisation (water bach—95° C.—30 minutes). Cooling bottles at room temperature—Storage in fridge until tasting. Perform Sensory assessment at room temperature. Eight panelists were asked to rate intensity of sensory attributes using a 0 to 5 structured scale (from 0 ‘not perceptible’ to 5 ‘strong intensity’). Sensory descriptors were selected to assess taste, tactile and aromatic stimuli Data treatment was run with XLSTAT software (Duncan mean comparison test). Sensory attributes were selected during a preliminary series of applications evaluated in a free-description mode Symbols for significant differences * at 95% (See FIG. 5). […] Other sensory attributes related to taste (“Sweetness”, “Bitterness”), tactile (mouthcoating) or aromatic stimuli (“cereal”) were unmodified.

[5] = Phloretin as taste modifier in foods and beverages containing steviol glycosides and rebaudioside
[6] = Sensory evaluation of tropical juice drink sweetened with sucrose (5%) and Stevia (25 ppm), with and without phloretin
[7] = Sensory evaluation of tropical flavored soft drink containing 7% sucrose, with and without phloretin
[8] = 20 ppm Phloretin, strawberry yogurt with 250 ppm Stevia, in words
[9] = sensory score, Stevia @250 ppm + 20 ppm Phloretin, strawberry yogurt, n = 29
[10] = 35 ppm Phloretin, pomegranate juice with 150 ppm Stevia, in words
[11] = sensory score, Pom Juice + SG95 @150 ppm + Phloretin @ 35 ppm
[12] = 30 ppm Phloretin, sugar (5%) and Stevia (25 ppm) tropical juice drink, in words
[13] = sensory score, Sucrose (5%) and Stevia (25 ppm) control + Phloretin @ 30 ppm, tropical juice drink
[14] = 30 ppm Phloretin, tropical soft drink with 7% sucrose, in words
[15] = sensory score, 7% Sucrose + 30 ppm Phloretin, tropical soft drink

O=C(CCc1ccc(O)cc1)c1c(O)cc(O)cc1O [Phloretin, 3-(4-hydroxyphenyl)-1-(2,4,6-trihydroxyphenyl)propan-1-one]
own flavor of phloretin [1]: nearly no flavor on its own
Strawberry flavor intensity versus control [2, 8]: higher
licorice taste versus control [2, 8]: significantly lower
Acidity [2, 9]: 2.56
Fruity [2, 9]: 3.25
Green [2, 9]: 2.38
Jammy [2, 9]: 3.19
Licorice [2, 9]: 1.44
Long Lasting [2, 9]: 2.56
Strawberry Flavor [2, 9]: 3.56
Sweetness [2, 9]: 3.38
Bitterness Intensity, effect of phloretin [3, 10]: significantly reduces
Pomegranate flavor intensity, effect of phloretin [3, 10]: significantly increasing
Sourness intensity, effect of phloretin [3, 10]: significantly reduces
Astringent [3, 11]: 4.1
Berry Flv intensity [3, 11]: 6.01
Bitterness [3, 11]: 3.35
Pomegranate Flv intensity [3, 11]: 6.68
Sourness intensity [3, 11]: 4.75
Sweetness intensity [3, 11]: 5.79
Sweetness, effect of phloretin [4]: unmodified
aromatic stimuli (cereal), effect of phloretin [4]: unmodified
bitterness, effect of phloretin [4]: unmodified
score in astringency, effect of phloretin [4]: significantly reduce
score in off-tastes, effect of phloretin [4]: significantly reduce
tactile (mouthcoating), effect of phloretin [4]: unmodified
off-note masking: bitterness [5]: reduced bitterness
off-note masking: licorice [5]: reduced licorice
off-note masking: linger [5]: reduced linger
astringency, effect of phloretin [6, 12]: significantly reduced
bitterness, effect of phloretin [6, 12]: significantly reduced
Acidity [6, 13]: 2.93
Astringency [6, 13]: 1.21
Bitterness [6, 13]: 0.57
Long-lasting (sweet) [6, 13]: 0.50
Off-notes [6, 13]: 1.21
Overall Flavor [6, 13]: 3.71
Sweetness [6, 13]: 2.29
acidity/sourness, effect of phloretin [7, 14]: significantly reduced
astringency, effect of phloretin [7, 14]: significantly reduced
bitterness, effect of phloretin [7, 14]: significantly reduced
Acidity/Sourness intensity [7, 15]: 3.27
Astringency intensity [7, 15]: 2.05
Bitterness intensity [7, 15]: 1.9
Mango Flavor intensity [7, 15]: 6.04
Off-Note intensity [7, 15]: 1.72
Overall Flavor intensity [7, 15]: 6.76
Passion Fruit Flavor intensity [7, 15]: 5.69
Tropical Flavor intensity [7, 15]: 6.55
